The numbers were not newly measured in patent publication US8187800B2, “Methods for selecting active agents for cancer treatment” (Precision Therapeutics, Inc., priority 2007, dated 2012), which cites them from elsewhere.

This data set deals with breast cancer. The settings on record: neoadjuvant therapy in breast cancer patients; 4 cycles FEC, then 4 cycles docetaxel.

Each structure is given as a SMILES string.

For the compound `CC(=O)O[C@@]12CO[C@@H]1C[C@H](O)[C@@]1(C)C(=O)[C@H](O)C3=C(C)[C@@H](OC(=O)[C@H](O)[C@@H](NC(=O)OC(C)(C)C)c4ccccc4)C[C@@](O)([C@@H](OC(=O)c4ccccc4)[C@H]21)C3(C)C` [docetaxel], the overall clinical response was 75%.
